Data as given in patent publication US20080261994A1, “CYCLOPROPANE COMPOUNDS AND PHARMACEUTICAL USE THEREOF” (Japan Tobacco Inc., priority 2003, published 2008).

What was measured:
Type in all cases: biochemical
Recombinant Human MMP-13 = biological target: T1, Recombinant Human MMP-13 (Homo sapiens, UniProt P45452); experiment: MMP-13 inhibitory activity (MMP-13 specific fluorescent substrate with quencher); settings: Experimental Example 3; read-out: IC50 MMP13
T1 construct: purchased R&D systems 511-MM
Outline: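 IC50 (μM) derived from % inhibition, normalised to wells without enzyme and without inhibitor, fluorescence read at 325/405 nm. Enzyme and compound preceded addition of the quenched 7-MCA…DPA substrate; Tris-HCl buffer, 25 °C for 1 h, acetic-acid stop.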

MMP-1 = biological target: T2, MMP-1 (Homo sapiens, UniProt P03956); experiment: MMP-1 inhibitory action (Type I collagen Activity Measurement kit, FITC-labeled collagen type I); settings: Experimental Example 2; read-out: IC50 MMP1
T2 sequence (P03956 100-469): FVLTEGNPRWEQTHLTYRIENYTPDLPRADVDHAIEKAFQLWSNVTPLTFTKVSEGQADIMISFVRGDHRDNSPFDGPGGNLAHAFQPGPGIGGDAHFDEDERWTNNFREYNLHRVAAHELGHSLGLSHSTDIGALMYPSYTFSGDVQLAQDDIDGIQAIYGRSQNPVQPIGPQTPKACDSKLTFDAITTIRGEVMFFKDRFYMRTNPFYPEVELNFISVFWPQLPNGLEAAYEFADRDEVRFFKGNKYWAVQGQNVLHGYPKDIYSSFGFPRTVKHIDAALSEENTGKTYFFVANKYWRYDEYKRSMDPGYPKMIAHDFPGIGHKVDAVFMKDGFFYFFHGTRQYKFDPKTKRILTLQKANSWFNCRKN

aggrecanase-1 = biological target: T3, aggrecanase-1 (Homo sapiens, UniProt O75173); experiment: Aggrecanase-1 inhibitory action (Particle Assay, GAG release from aggrecan-containing polyacrylamide particles); settings: Experimental Example 1; read-out: IC50 AG1
T3 sequence (O75173 213-837): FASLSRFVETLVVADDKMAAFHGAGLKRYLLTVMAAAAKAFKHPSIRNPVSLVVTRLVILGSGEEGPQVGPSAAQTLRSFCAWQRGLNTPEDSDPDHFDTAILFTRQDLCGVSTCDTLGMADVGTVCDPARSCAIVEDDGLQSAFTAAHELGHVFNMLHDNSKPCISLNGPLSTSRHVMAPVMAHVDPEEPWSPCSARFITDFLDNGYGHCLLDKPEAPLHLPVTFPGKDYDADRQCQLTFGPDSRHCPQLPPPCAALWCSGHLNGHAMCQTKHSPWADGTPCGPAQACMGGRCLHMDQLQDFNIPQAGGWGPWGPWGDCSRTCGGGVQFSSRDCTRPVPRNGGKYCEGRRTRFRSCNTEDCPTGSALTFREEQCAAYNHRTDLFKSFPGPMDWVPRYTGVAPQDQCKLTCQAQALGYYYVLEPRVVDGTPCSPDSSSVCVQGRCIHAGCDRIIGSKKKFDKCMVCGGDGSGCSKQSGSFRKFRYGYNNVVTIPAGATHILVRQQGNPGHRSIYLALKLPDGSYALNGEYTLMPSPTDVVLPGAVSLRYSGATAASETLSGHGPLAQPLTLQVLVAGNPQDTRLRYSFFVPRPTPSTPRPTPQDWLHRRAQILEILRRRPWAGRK
Outline: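 Readout was dimethylmethylene blue absorbance (595 nm) of glycosaminoglycan liberated into supernatant, calibrated with whale chondroitin sulfate. Substrate was aggrecan in polyacrylamide particles, digested 15 h at 37° C in Tris-HCl; TC50 (μM) derived from inhibition relative to no-enzyme and no-inhibitor controls.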

IC50 (Recombinant Human MMP-13) [µM] | IC50 (MMP-1) [µM] | IC50 (aggrecanase-1) [µM] | SMILES
< 1 | ≥ 1 | < 0.1 | O=C(O)CSCC1(c2ccccc2)CC1(NS(=O)(=O)c1ccc(-c2ccc(Cl)cc2)s1)C(=O)O (stereo not drawn) [Example 2-358]
< 0.1 | ≥ 1 | < 1 | O=C(CSCC1(c2ccccc2)CC1(NS(=O)(=O)c1ccc(-c2ccc(Cl)cc2)s1)C(=O)O)N1CCOCC1 (stereo not drawn) [Example 2-359]
< 1 | ≥ 10 | < 0.1 | O=C(NO)C1(NS(=O)(=O)c2ccc(OCc3ccc(Cl)cc3Cl)cc2)C2CCc3ccccc3C21 (stereo not drawn) [Example 2-360]
≥ 1 | ≥ 10 | ≥ 1 | NCC1(c2ccccc2)CC1(NS(=O)(=O)c1ccc(-c2ccc(Cl)cc2)s1)C(=O)O (stereo not drawn) [Example 2-361]
< 0.1 | ≥ 10 | < 1 | O=C1OCCN1CC1(c2ccccc2)CC1(NS(=O)(=O)c1ccc(-c2ccc(Cl)cc2)s1)C(=O)O (stereo not drawn) [Example 2-362]
< 1 | ≥ 10 | ≥ 1 | O=C(O)C1(NS(=O)(=O)c2ccc(OCc3ccc(Cl)cc3Cl)cc2)C2CCCc3ccccc3C21 (stereo not drawn) [Example 2-363]
< 0.1 | < 1 | < 1 | O=C(NO)C1(NS(=O)(=O)c2ccc(-c3ccc(Cl)cc3)s2)C2CCc3ccccc3C21 (stereo not drawn) [Example 2-364]
< 0.1 | < 1 | < 0.1 | O=C(O)C1(NS(=O)(=O)c2ccc(-c3ccc(Cl)cn3)s2)C2CCCc3ccccc3C21 (stereo not drawn) [Example 2-365]
< 0.1 | < 1 | < 0.1 | CC1[C@H](c2ccccc2)[C@]1(NS(=O)(=O)c1ccc(-c2ccc(Cl)cn2)s1)C(=O)O (stereo partly drawn) [Example 2-366]
≥ 1 | ≥ 10 | ≥ 1 | Cc1cn(-c2ccc(S(=O)(=O)N[C@@]3(C(=O)O)C(C)[C@@H]3c3ccccc3)s2)cn1 (stereo partly drawn) [Example 2-367]
< 1 | ≥ 1 | < 1 | O=C(NCC1(c2ccccc2)CC1(NS(=O)(=O)c1ccc(-c2ccc(Cl)cc2)s1)C(=O)O)c1ccccn1 (stereo not drawn) [Example 2-368]
< 0.1 | ≥ 1 | < 0.1 | O=C(O)C1(NS(=O)(=O)c2ccc(-c3ccc(Cl)cc3)s2)C2CCOc3ccccc3C21 (stereo not drawn) [Example 2-369]
< 0.1 | < 1 | < 0.1 | O=C(O)C1(NS(=O)(=O)c2ccc(-c3cc(C(F)(F)F)on3)s2)C2CCOc3ccccc3C21 (stereo not drawn) [Example 2-370]
≥ 1 | ≥ 10 | ≥ 1 | O=C(O)[C@]1(NS(=O)(=O)c2ccc(-c3cc(C(F)(F)F)on3)o2)C[C@@H]1c1ccccc1 [Example 2-371]
≥ 1 | ≥ 10 | ≥ 1 | CC1[C@H](c2ccccc2)[C@]1(NS(=O)(=O)c1ccc(-c2cc(C(F)(F)F)on2)o1)C(=O)O (stereo partly drawn) [Example 2-372]
≥ 1 | ≥ 10 | ≥ 1 | O=C(O)C1(NS(=O)(=O)c2ccc(-c3cc(C(F)(F)F)on3)o2)C2CCCc3ccccc3C21 (stereo not drawn) [Example 2-373]
< 0.1 | < 1 | < 0.1 | Cc1cc(-c2ccc(S(=O)(=O)N[C@@]3(C(=O)O)C(C)[C@@H]3c3ccccc3)s2)no1 (stereo partly drawn) [Example 2-374]
< 0.1 | < 1 | < 0.1 | Cc1cc(-c2ccc(S(=O)(=O)NC3(C(=O)O)C4CCCc5ccccc5C43)s2)no1 (stereo not drawn) [Example 2-375]
< 1 | ≥ 10 | < 1 | CC(=O)NCC1(c2ccccc2)CC1(NS(=O)(=O)c1ccc(-c2ccc(Cl)cc2)s1)C(=O)O (stereo not drawn) [Example 2-376]

IC50 (Recombinant Human MMP-13) [µM] | IC50 (MMP-1) [µM] | IC50 (aggrecanase-1) [µM] | SMILES
< 1 | ≥ 1 | < 1 | CCCC(=O)NCC1(c2ccccc2)CC1(NS(=O)(=O)c1ccc(-c2ccc(Cl)cc2)s1)C(=O)O (stereo not drawn) [Example 2-377]
< 1 | ≥ 1 | < 1 | CN(C)C(=O)NCC1(c2ccccc2)CC1(NS(=O)(=O)c1ccc(-c2ccc(Cl)cc2)s1)C(=O)O (stereo not drawn) [Example 2-378]
< 1 | ≥ 1 | < 1 | O=C(NCC1(c2ccccc2)CC1(NS(=O)(=O)c1ccc(-c2ccc(Cl)cc2)s1)C(=O)O)C1CC1 (stereo not drawn) [Example 2-379]
< 1 | ≥ 10 | < 1 | O=C(NCC1(c2ccccc2)CC1(NS(=O)(=O)c1ccc(-c2ccc(Cl)cc2)s1)C(=O)O)C1CCCCC1 (stereo not drawn) [Example 2-380]
< 1 | ≥ 10 | < 1 | O=C(NCC1(c2ccccc2)CC1(NS(=O)(=O)c1ccc(-c2ccc(Cl)cc2)s1)C(=O)O)N1CCOCC1 (stereo not drawn) [Example 2-381]
< 1 | < 1 | < 0.1 | C[C@]1(c2ccccc2)C[C@@]1(NS(=O)(=O)c1ccc(-c2cc(C(F)F)on2)s1)C(=O)O [Example 2-382]
< 0.1 | < 1 | < 0.1 | O=C(O)C1(NS(=O)(=O)c2ccc(-c3cc(C(F)F)on3)s2)C2CCCc3ccccc3C21 (stereo not drawn) [Example 2-383]
< 0.1 | ≥ 10 | < 1 | CCOC(=O)NCC1(c2ccccc2)CC1(NS(=O)(=O)c1ccc(-c2ccc(Cl)cc2)s1)C(=O)O (stereo not drawn) [Example 2-384]
< 1 | ≥ 10 | < 1 | O=C(NCC1(c2ccccc2)CC1(NS(=O)(=O)c1ccc(-c2ccc(Cl)cc2)s1)C(=O)O)[C@@H]1CCCO1 (stereo partly drawn) [Example 2-385]
< 1 | ≥ 1 | < 1 | COCC1(c2ccccc2)CC1(NS(=O)(=O)c1ccc(-c2ccc(Cl)cc2)s1)C(=O)O (stereo not drawn) [Example 2-386]
< 1 | ≥ 10 | ≥ 1 | Cn1cc(-c2ccc(S(=O)(=O)N[C@@]3(C(=O)O)C[C@@H]3c3ccccc3)s2)cn1 [Example 2-387]
< 1 | ≥ 1 | < 1 | O=C(O)[C@]1(NS(=O)(=O)c2ccc(-c3ccc([N+](=O)[O-])cc3)s2)C[C@@H]1c1ccccc1 [Example 2-388]
< 0.1 | ≥ 1 | < 0.1 | O=C(O)C1(NS(=O)(=O)c2ccc(-c3ccc(Cl)cc3)s2)C2CCNc3ccccc3C21 (stereo not drawn) [Example 2-389]
≥ 1 | ≥ 10 | < 1 | O=C(NO)C1(NS(=O)(=O)c2ccc(OCc3ccc(Cl)cc3Cl)cc2)C2CCCc3ccccc3C21 (stereo not drawn) [Example 2-390]
< 1 | ≥ 10 | ≥ 1 | O=C(NO)C1(NS(=O)(=O)c2ccc(-c3ccc(Cl)cc3)s2)C2CCCc3ccccc3C21 (stereo not drawn) [Example 2-391]
≥ 1 | ≥ 10 | ≥ 1 | CC(C)NCC1(c2ccccc2)CC1(NS(=O)(=O)c1ccc(-c2ccc(Cl)cc2)s1)C(=O)O (stereo not drawn) [Example 2-392]
< 0.1 | ≥ 1 | < 1 | O=C(O)C1(NS(=O)(=O)c2ccc(-c3ccc(Cl)cc3)s2)CC1(CNCc1nccs1)c1ccccc1 (stereo not drawn) [Example 2-393]
< 0.1 | ≥ 1 | < 1 | O=C(NCC1(c2ccccc2)CC1(NS(=O)(=O)c1ccc(-c2ccc(Cl)cc2)s1)C(=O)O)c1cccnc1 (stereo not drawn) [Example 2-394]
< 1 | ≥ 10 | < 1 | O=C(CCO)NCC1(c2ccccc2)CC1(NS(=O)(=O)c1ccc(-c2ccc(Cl)cc2)s1)C(=O)O (stereo not drawn) [Example 2-395]
